Reference: US11213548B2, “Modulatable switch for selection of donor modified cells” (CSL Behring Gene Therapy, Inc., priority 2017, dated 2022)

Tests used:
Format in all cases: cell-based
K562 cells [1] = assay: Positive selection with 6TG of HPRT knockdown / knockout K562 cells (ex vivo)
Experimental: K562 cells were transduced with a vector including a nucleic acid sequence designed to knockdown HPRT and a nucleic acid sequence encoding the green fluorescent protein (GFP) (MOI=1/2/5); or were transfected with a nanocapsule including CRISPR/Cas9 and a sgRNA to HPRT (100 ng/5×10^4 cells) at day zero (0). 6-TG was added into the medium from day 3 through day 14. The medium was refreshed every 3 to 4 days. GFP was analyzed on flow machine and InDel % as analyzed with T7E1 assay. FIG. 9A illustrates that the GFP+ population of transduced K562 cells increased from day 3 to day 14 under treatment of 6TG; while the GFP+ population was almost steady without 6-TG treatment. […] It should be noted that 6TG selection process occurred much faster on HPRT knockout cells as compared with the HPRT knockdown cells (MOI=1) at the same concentration of 300 nM of 6TG from day 3 to day 14. The difference between knockdown and knockout could be explained by some level of residual HPRT by the RNAi knockdown approach as compared with the full elimination of HPRT by the knockout approach. Therefore, HPRT-knockout cells were believed to have a much higher tolerance against 6TG and are believed to grow much faster at higher dosages of 6TG (900 nM) compared with HPRT-knockdown cells.

CEM cells [2] = assay: Positive selection with 6TG of HPRT knockdown / knockout CEM cells (ex vivo)
Experimental: CEM cells were transduced with a vector including a nucleic acid sequence designed to knockdown HPRT and a nucleic acid sequence encoding the green fluorescent protein or transfected with a nanocapsule including CRISPR/Cas9 and a sgRNA to HPRT at day 0. 6-TG was added into the medium from day 3 to day 17. The medium was refreshed every 3 to 4 days. GFP as analyzed on flow machine and InDel % is analyzed by T7E1 assay. FIG. 10A illustrates that the GFP+ population of transduced […] cells increased from day 3 to day 17 under treatment of 6TG while GFP+ population was almost steady without 6-TG. […] It should be noted that 6TG selection process occurred faster on HPRT knockout cells rather than HPRT knockdown cells (MOI=1) at the same concentration of 6TG from day 3 to day 17.

K562 cells [3] = assay: Negative selection with MTX for K562 cells transduced with different lentiviral vector designs
Experimental: K562 cells were transduced with either TL20cw-GFP virus soup at dilution factor of 16, TL2Ocw-Ubc/GFP-7SK/sh734 (one sequentially encoding GFP and a shRNA designed to knockdown HPRT) virus soup at dilution factor of 16 and TL2Ocw-7SK/sh734-UBC/GFP (one sequentially encoding a shRNA designed to knockdown HPRT and GFP) virus soup at dilution factor of 16, respectively (see FIG. 13). All cells were cultured with medium containing 0.3 uM of MTX 3 days later. Also shown in FIG. 13 are K562 cells which were transduced by TL20cw-7SK/sh734-UBC/GFP (one encoding a nucleic acid encoding a shRNA designed to knockdown HPRT) virus soup at dilution factor of 1024 one month earlier and where GFP-sh734-transduced cells were positively selected with 300 nM of 6TG 6-TG was selection during that time to reach more than 90% of GFP+ population. […] The relative sh734 expression per VCN for sh734-GFP-transduced cells and GFP-sh73-transduced cells were measured.

CEM cells [4] = assay: Negative selection with MTX or MPA of transduced or transfected CEM cells; settings: day 0 to day 14; for GFP population of transduced cells under treatment: CEM experiment (K562 in the source), steady for untreated group
K562 cells [5] = assay: Negative selection with MTX of transduced or transfected K562 cells; settings: 0.3 uM MTX, day 0 to day 14
Experimental: Transduced or transfected K562 cells (such as those from Example 6) were cultured with or without MTX from day 0 to day 14. The medium was refreshed every 3 to 4 days. GFP was analyzed on flow machine and InDel % was analyzed by T7E1 assay. […] FIG. 11B illustrates that the transfected K562 cells were eliminated under treatment with 0.3 uM of MTX at a faster pace as compared with the HPRT-KD population.

## Nc1nc2nc[nH]c2c(=S)[nH]1 [6TG, 6-thioguanine]
K562 cells [1]; 900 nM 6TG compared with 300/600 nM, day 3 to 14
  Speed of selection of HPRT knockout K562 cells, higher dosage versus 300/600 nM of 6TG: faster selection
K562 cells [1]; CRISPR/Cas9 + sgRNA to HPRT nanocapsule, day 3 to 14, InDel % by T7E1 assay
  HPRT knockout population of K562 cells under treatment of 6TG: increased
K562 cells [1]; HPRT knockdown vector with GFP, MOI=1/2/5, 6-TG in medium day 3 to day 14, flow, almost steady without 6-TG
  GFP+ population of transduced K562 cells under treatment of 6TG: increased
K562 cells [1]; K562, 300 nM 6TG, day 3 to day 14
  Speed of 6TG selection on HPRT knockout cells compared with HPRT knockdown cells (MOI=1): much faster
CEM cells [2]; 900 nM 6TG compared with 300/600 nM, day 3 to 17
  Speed of selection of HPRT knockout CEM cells, higher dosage versus 300/600 nM of 6TG: faster selection
CEM cells [2]; CEM experiment (K562 in the source), HPRT knockdown vector with GFP, 6-TG day 3 to day 17, almost steady without 6-TG
  GFP+ population of transduced cells under treatment of 6TG: increased
CEM cells [2]; CEM, same concentration of 6TG, day 3 to day 17
  Speed of 6TG selection on HPRT knockout cells compared with HPRT knockdown cells (MOI=1): faster
CEM cells [2]; CRISPR/Cas9 + sgRNA to HPRT nanocapsule, day 3 to 17, InDel % by T7E1 assay
  HPRT knockout population of CEM cells under treatment of 6TG: increased
K562 cells [3]; 300 nM 6TG, K562 transduced at dilution factor of 1024 one month earlier
  GFP+ population reached by positive selection with 6TG: more than 90%

## COc1c(C)c2c(c(O)c1C/C=C(\C)CCC(=O)O)C(=O)OC2 [MPA, mycophenolic acid]
CEM cells [4]; 1 uM MPA
  GFP population of transduced cells under treatment: decreased
  HPRT knockout population of CEM cells under treatment: eliminated at a faster pace
CEM cells [4]; 10 uM MPA
  GFP population of transduced cells under treatment: decreased
  HPRT knockout population of CEM cells under treatment: eliminated at a faster pace

## CN(Cc1cnc2nc(N)nc(N)c2n1)c1ccc(C(=O)N[C@@H](CCC(=O)O)C(=O)O)cc1 [MTX, methotrexate]
CEM cells [4]; 0.3 uM MTX
  GFP population of transduced cells under treatment: decreased
  HPRT knockout population of CEM cells under treatment: eliminated at a faster pace
K562 cells [3]; 0.3 uM MTX, sh734-high-expression versus sh734-low-expression lentiviral vector
  Deselection of transduced K562 cells by methotrexate: could only deselect cells transduced with sh734-high-expression lentiviral vector
K562 cells [5]; HPRT knockdown, steady without MTX
  GFP population of transduced K562 cells under treatment of MTX: decreased
K562 cells [5]; faster pace than HPRT-KD population
  Transfected (HPRT knockout) K562 cells under treatment with MTX: eliminated
